The results in this text go back to patent US20070293484A1, “Thiophene Heteroaryl Amines” (SUGEN, INC., priority 2004, published 2007).

For one experiment, the target named is T1, GST-Flk1 (Mus musculus, UniProt P35918).
T1 construct: GST-Flk1cd purified from sf9 recombinant baculovirus transformation (SUGEN, Inc.); host or cells: Sf9 insect cells (recombinant baculovirus)
In words: GST-FLK-1 bioassay (ELISA, tyrosine kinase activity on poly(glu,tyr)). In kind it is biochemical. The protocol:
The assays described herein are performed in an ELISA (Enzyme-Linked Immunosorbent Sandwich Assay) format (Voller, et al., 1980, “Enzyme-Linked Immunosorbent Assay,” Manual of Clinical Immunology, 2d ed., Rose and Friedman, Am. Soc. Of Microbiology, Washington, D.C., pp. 359-371). The general procedure is as follows: a compound is introduced to cells expressing the test kinase, either naturally or recombinantly, for a selected period of time after which, if the test kinase is a receptor, a ligand known to activate the receptor is added. The cells are lysed and the lysate is transferred to the wells of an ELISA plate previously coated with a specific antibody recognizing the substrate of the enzymatic phosphorylation reaction. Non-substrate components of the cell lysate are washed away and the amount of phosphorylation on the substrate is detected with an antibody specifically recognizing phosphotyrosine compared with control cells that were not contacted with a test compound.
This assay analyzes the tyrosine kinase activity of GST-Flk1 on poly(glu,tyr) peptides.
• 1. Corning 96-well ELISA plates (Corning Catalog No. 5805-96). • 2. poly(glu,tyr) 4:1, lyophilizate (Sigma Catalog #P0275). • 3. Preparation of poly(glu,tyr)(pEY) coated assay plates: Coat 2 ug/well of poly(glu,tyr)(pEY) in 100 μL PBS, hold at room temperature for 2 hours or at 4° C. overnight. Cover plates well to prevent evaporation. • 4. PBS Buffer: for 1 L, mix 0.2 g KH2PO4, 1.15 g Na2HPO4, 0.2 g KCl and 8 g NaCl in approx. 900 ml dH2O. When all reagents have dissolved, adjust the pH to 7.2 with HCl. Bring total volume to 1 L with dH2O. • 5. PBST Buffer: to 1 L of PBS Buffer, add 1.0 ml Tween-20. • 6. TBB—Blocking Buffer: for 1 L, mix 1.21 g TRIS, 8.77 g NaCl, 1 ml TWEEN-20 in approximately 900 ml dH2O. Adjust pH to 7.2 with HCl. Add 10 g BSA, stir to dissolve. Bring total volume to 1 L with dH2O. Filter to remove particulate matter. • 7. 1% BSA in PBS: To make a 1× working solution, add 10 g BSA to approx. 990 ml PBS buffer, stir to dissolve. Adjust total volume to 1 L with PBS buffer, filter to remove particulate matter. • 8. 50 mM Hepes pH 7.5. • 9. GST-Flk1cd purified from sf9 recombinant baculovirus transformation (SUGEN, Inc.). • 10. 4% DMSO in dH2O. • 11. 10 mMATP in dH2O. • 12. 40 mM MnCl2 • 13. Kinase Dilution Buffer (KDB): mix 10 ml Hepes (pH 7.5), 1 ml 5M NaCl, 40 μL 100 mM sodium orthovanadate and 0.4 ml of 5% BSA in dH2O with 88.56 ml dH2O. • 14. NUNC 96-well V bottom polypropylene plates, Applied Scientific Catalog #AS-72092 • 15. EDTA: mix 14.12 g ethylenediaminetetraacetic acid (EDTA) to approx. 70 ml dH2O. Add 10 N NaOH until EDTA dissolves. Adjust pH to 8.0. Adjust total volume to 100 ml with dH2O. • 16. 1^0 Antibody Dilution Buffer: mix 10 ml of 5% BSA in PBS buffer with 89.5 ml TBST. • 17. Anti-phosphotyrosine monoclonal antibody conjugated to horseradish peroxidase (PY99 HRP, Santa Cruz Biotech). • 18. 2,2′-Azinobis(3-ethylbenzthiazoline-6-sulfonic acid (ABTS, Moss, Cat. No. ABST). • 19. 10% SDS. Procedure: • 1. Coat Corning 96-well ELISA plates with 2 μg of polyEY peptide in sterile PBS as described in step 3 of Materials and Reagents. • 2. Remove unbound liquid from wells by inverting plate. Wash once with TBST. Pat the plate on a paper towel to remove excess liquid. • 3. Add 100 μl of 1% BSA in PBS to each well. Incubate, with shaking, for 1 hr. at room temperature. • 4. Repeat step 2. • 5. Soak wells with 50 mM HEPES (pH7.5) (150 μl/well). • 6. Dilute test compound with dH2O/4% DMSO to 4 times the desired final assay concentration in 96-well polypropylene plates. • 7. Add 25 μl diluted test compound to ELISA plate. In control wells, place 25 μl of dH2O/4% DMSO. • 8. Add 25 μl of 40 mM MnCl2 with 4×ATP (2 μM) to each well. • 9. Add 25 μl 0.5M EDTA to negative control wells. • 10. Dilute GST-Flk1 to 0.005 μg (5 ng)/well with KDB. • 11. Add 50 μl of diluted enzyme to each well. • 12. Incubate, with shaking, for 15 minutes at room temperature. • 13. […]

The target in the next experiment is T2, PDGFR (Homo sapiens, UniProt P09619).
T2 construct: SUGEN, Inc; host or cells: NIH 3T3 cell lysate; receptor captured on plate with monoclonal anti-PDGFR antibody 28D4C10
The experiment in a line: PDGFR bioassay (ELISA, in vitro kinase activity). In kind it is biochemical. The settings on record: PDGFR-β expressing NIH 3T3 cell lysate; read-out: IC50 (μM) PDGF-R.

“And” between values parts separate entries of the source, which are not always exact repeats. Identical values can stand only once.

T2 sequence (P09619 33-1106, species assumed): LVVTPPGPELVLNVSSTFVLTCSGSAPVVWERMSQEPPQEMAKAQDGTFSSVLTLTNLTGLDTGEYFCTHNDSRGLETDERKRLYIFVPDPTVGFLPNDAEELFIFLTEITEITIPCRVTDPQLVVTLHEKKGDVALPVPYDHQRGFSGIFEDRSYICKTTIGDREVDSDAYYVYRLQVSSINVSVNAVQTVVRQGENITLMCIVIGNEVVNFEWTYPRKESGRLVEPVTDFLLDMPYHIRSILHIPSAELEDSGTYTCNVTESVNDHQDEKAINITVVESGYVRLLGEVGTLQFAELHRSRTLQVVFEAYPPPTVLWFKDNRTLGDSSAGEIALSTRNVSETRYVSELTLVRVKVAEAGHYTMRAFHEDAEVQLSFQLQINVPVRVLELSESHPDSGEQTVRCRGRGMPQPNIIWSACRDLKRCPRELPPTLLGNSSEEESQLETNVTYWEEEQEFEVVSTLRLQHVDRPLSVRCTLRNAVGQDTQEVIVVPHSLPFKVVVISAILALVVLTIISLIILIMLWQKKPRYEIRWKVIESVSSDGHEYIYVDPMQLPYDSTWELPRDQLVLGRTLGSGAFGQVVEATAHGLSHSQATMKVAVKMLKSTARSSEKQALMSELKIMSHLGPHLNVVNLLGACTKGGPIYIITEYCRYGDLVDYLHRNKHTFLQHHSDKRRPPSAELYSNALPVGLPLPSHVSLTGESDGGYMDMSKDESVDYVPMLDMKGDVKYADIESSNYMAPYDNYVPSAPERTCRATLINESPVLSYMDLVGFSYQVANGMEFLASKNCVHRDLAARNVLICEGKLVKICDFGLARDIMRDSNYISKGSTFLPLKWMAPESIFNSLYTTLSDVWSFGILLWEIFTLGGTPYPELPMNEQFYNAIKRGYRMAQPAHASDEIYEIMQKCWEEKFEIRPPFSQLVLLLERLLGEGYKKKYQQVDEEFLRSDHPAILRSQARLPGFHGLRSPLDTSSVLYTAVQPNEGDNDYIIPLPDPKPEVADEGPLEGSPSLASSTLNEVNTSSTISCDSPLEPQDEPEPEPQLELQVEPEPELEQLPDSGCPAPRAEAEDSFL
T1 sequence (P35918 784-1345 limits assumed): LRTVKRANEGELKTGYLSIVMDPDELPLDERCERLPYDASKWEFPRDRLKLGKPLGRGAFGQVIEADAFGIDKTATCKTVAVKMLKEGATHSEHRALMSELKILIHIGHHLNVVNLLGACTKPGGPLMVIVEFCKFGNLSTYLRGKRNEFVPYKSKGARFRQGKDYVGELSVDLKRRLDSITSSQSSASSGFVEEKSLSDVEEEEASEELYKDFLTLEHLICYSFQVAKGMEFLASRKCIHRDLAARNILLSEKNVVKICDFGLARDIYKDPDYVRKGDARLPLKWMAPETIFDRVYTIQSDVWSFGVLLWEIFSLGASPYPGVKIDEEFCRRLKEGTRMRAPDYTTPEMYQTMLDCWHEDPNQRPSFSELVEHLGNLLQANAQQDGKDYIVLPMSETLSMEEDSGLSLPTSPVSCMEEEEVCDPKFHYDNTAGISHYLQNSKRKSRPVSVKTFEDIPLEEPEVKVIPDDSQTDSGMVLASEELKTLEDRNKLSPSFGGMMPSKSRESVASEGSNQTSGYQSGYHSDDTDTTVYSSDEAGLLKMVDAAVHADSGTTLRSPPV

Regarding `O=C(CNCCN1CCOCC1)Nc1cccc(Nc2ncc(-c3ccsc3)cn2)c1` [Example 56, 2-(2-morpholin-4-yl-ethylamino)-N-[3-(5-thiophen-3-yl-pyrimidin-2-ylamino)-phenyl]-acetamide], the half-inhibitory concentration (IC50) against GST-Flk1 was 2.4 µM; on PDGFR, 0.09 µM.

In the case of `CCN(CC)CCNCC(=O)Nc1cccc(Nc2ncc(-c3ccsc3)cn2)c1` [Example 57, 2-(2-diethylamino-ethylamino)-N-[3-(5-thiophen-3-yl-pyrimidin-2-ylamino)-phenyl]-acetamide], the IC50 against GST-Flk1 turned out to be 3.1 µM; at PDGFR, 0.23 µM.

`CN1CCN(CCNCC(=O)Nc2cccc(Nc3ncc(-c4ccsc4)cn3)c2)CC1` [Example 58, 2-[2-(4-methyl-piperazin-1-yl)-ethylamino]-N-[3-(5-thiophen-3-yl-pyrimidin-2-ylamino)-phenyl]-acetamide]: the IC50 was 2.5 µM and 4 µM on GST-Flk1; 0.08 µM and 0.43 µM on PDGFR.

As for `O=C(CNCC(O)CN1CCOCC1)Nc1cccc(Nc2ncc(-c3ccsc3)cn2)c1` (centres unmarked) [Example 59, 2-(2-hydroxy-3-morpholin-4-yl-propylamino)-N-[3-(5-thiophen-3-yl-pyrimidin-2-ylamino)-phenyl]-acetamide], the IC50 at GST-Flk1 came out at 2.7 µM; at PDGFR, 0.09 µM.

Regarding `O=C(CNCCN1CCS(=O)(=O)CC1)Nc1cccc(Nc2ncc(-c3ccsc3)cn2)c1` [Example 60, 2-[2-(1,1-dioxo-1λ^6-thiomorpholin-4-yl)-ethylamino]-N-[3-(5-thiophen-3-yl-pyrimidin-2-ylamino)-phenyl]-acetamide], the IC50 amounted to 2.4 µM against GST-Flk1 and 0.06 µM on PDGFR.

For the compound `O=C(CN1CCOCC1)Nc1cccc(Nc2ncc(-c3ccsc3)cn2)c1` [Example 61, 2-morpholin-4-yl-N-[3-(5-thiophen-3-yl-pyrimidin-2-ylamino)-phenyl]-acetamide], the 50% inhibitory concentration (IC50) on GST-Flk1 stood at 2.5 µM; on PDGFR, 0.94 µM.

In the case of `O=C(CN1CCCC1)Nc1cccc(Nc2ncc(-c3ccsc3)cn2)c1` [Example 62, 2-pyrrolidin-1-yl-N-[3-(5-thiophen-3-yl-pyrimidin-2-ylamino)-phenyl]-acetamide], the IC50 against GST-Flk1 worked out at 2.8 µM; at PDGFR it was 0.2 µM.
